Results reported in patent publication US20240109910A1, “HEXAHYDRO-5,8-EPOXYCYCLOHEPTA[c]PYRAZOLE DERIVATIVES USEFUL AS MODULATORS OF THE CB1 AND / OR CB2 RECEPTORS” (JANSSEN PHARMACEUTICA NV, priority 2019, published 2024).
Where two headings read alike, the source gives them in different places.

What was measured:
hCB2 receptor = hCB2 receptor (Homo sapiens, UniProt P34972); experiment: Agonism of CB2 by detection of cAMP using HTRF; type: cell-based; conditions: for Emax: normalized to DMSO and maximal activation (5 nM CP55940)
hCB2 receptor, sequence (P34972 whole entry): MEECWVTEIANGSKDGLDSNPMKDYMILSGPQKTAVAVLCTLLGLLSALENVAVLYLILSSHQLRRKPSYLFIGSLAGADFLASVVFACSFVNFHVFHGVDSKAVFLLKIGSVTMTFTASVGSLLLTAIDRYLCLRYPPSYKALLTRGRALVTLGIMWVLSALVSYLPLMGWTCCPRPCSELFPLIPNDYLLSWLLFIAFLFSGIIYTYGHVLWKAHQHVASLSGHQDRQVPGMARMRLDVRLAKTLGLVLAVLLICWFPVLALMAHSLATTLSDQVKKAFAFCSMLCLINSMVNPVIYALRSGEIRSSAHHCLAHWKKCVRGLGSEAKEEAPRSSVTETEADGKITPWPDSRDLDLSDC
Description: (§1) Method for Assaying Agonism of CB1 or CB2 by Detection of cAMP Using Homogeneous Time-Resolved Fluorescence (HTRF®)
(§2) CHOP-K1 cells stably expressing the CB1 receptor (PerkinElmer, ES-110-C) or the CB2 receptor (PerkinElmer, ES-111-CF) were seeded into 384 well white TC-treated plates (Greiner 781080) at 7000 cells per well in Ham's media (Gibco #31765-035) supplemented with 10% FBS (Gibco #16000-044) and 500 μg/mL Geneticin (Gibco #10131-027) and cultured overnight. The next day, plates were washed one time in assay buffer (HBSS with Ca^2+ and Mg^2+ (Corning #21-023-CV)+20 mM HEPES (Corning #25-060-Cl) and 0.01% BSA (Sigma A2153)). In a separate compound plate (Greiner 781201-906), 50 nL of test compound or DMSO was transferred using the Echo 550 (Labcyte), then 40 μL/well of assay buffer with 0.5 mM IBMX, 2 μM Forskolin (Sigma F3917), and 0.01% BSA was added. For the CB1 assay, assay buffer was dumped from the cell plate and fresh assay buffer containing 0.5 mM IBMX (Sigma I5679) was added at 30 μL/well, and the plate was incubated for 1 hr at 37° C., 5% CO2. Following the IBMX pre-treatment step, buffer was dumped from the cell plate, and 20 μL/well of the assay buffer with test compound was transferred into the cell plate with a subsequent incubation of 20 min at room temperature. Reagents for cAMP detection (cisbio 62AM4PEJ) were prepared and subsequently transferred to the cell plate at 20 μL/well. Following a 1 hr incubation at room temperature, the plate was read on the Pherastar FX (BMG, excitation 320 nm, detection at 620 nm (donor) and 665 nm (acceptor)). The ratio of signal at 665 nm/620 nm was determined for each well in the plate. For each assay day, a cAMP standard curve was run in parallel to assess the range of response and determine the concentration of cAMP in each well. Control wells (n=16 of each) with no activation of CB1 receptor (DMSO) and maximal activation (5 nM CP55940, Sigma) were used to normalize the data and to determine signal-to-background ratio and Z′. For the CB2 assay, conditions were as described above for the CB1 assay, except that the IBMX preincubation step was not used and that the 20 min compound incubation step occurred in the incubator at 37° C., 5% CO2.
(§3) EC50 values were calculated from dose response curves by nonlinear regression analysis using PRISM software.
(§4) Representative compounds of the present invention were tested according to the procedures described in Biological Example 1 above, with results as listed in Table 3, below. If a compound was tested more than once (due to multiple samples or batches), then the value listed in Table 3 below represents the average of the measured values.

hCB1 receptor = hCB1 receptor (Homo sapiens, UniProt P21554); experiment: Agonism of CB1 by detection of cAMP using HTRF; type: cell-based; conditions: for Emax: normalized to DMSO and maximal activation (5 nM CP55940)
hCB1 receptor, sequence (P21554 whole entry): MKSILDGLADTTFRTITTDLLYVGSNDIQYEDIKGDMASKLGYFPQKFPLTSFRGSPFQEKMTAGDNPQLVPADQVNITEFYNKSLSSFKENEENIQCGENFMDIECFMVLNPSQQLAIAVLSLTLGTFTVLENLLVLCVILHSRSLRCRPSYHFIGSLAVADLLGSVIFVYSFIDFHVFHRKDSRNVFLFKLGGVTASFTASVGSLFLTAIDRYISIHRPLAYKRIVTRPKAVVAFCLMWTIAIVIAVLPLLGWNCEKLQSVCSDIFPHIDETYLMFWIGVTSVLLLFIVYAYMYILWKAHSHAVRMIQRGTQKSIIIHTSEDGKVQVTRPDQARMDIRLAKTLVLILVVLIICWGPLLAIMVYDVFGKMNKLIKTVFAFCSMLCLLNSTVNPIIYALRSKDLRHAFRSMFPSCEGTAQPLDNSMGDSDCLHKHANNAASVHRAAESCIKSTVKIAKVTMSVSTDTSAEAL
Description: as §1, §2, §3, §4

[1] = CHO cells stably expressing CB2 receptor, cAMP HTRF, forskolin-stimulated, average if tested more than once, read-out: hCB2 CHO EC50
[2] = CHO cells stably expressing CB2 receptor
[3] = CHO cells stably expressing CB1 receptor, cAMP HTRF, forskolin-stimulated, average if tested more than once, read-out: hCB1 CHO EC50
[4] = CHO cells stably expressing CB1 receptor

Compound | EC50 (hCB2 receptor; [1]) | Emax (hCB2 receptor; [2]) | EC50 (hCB1 receptor; [3]) | Emax (hCB1 receptor; [4]) | EC50 (hCB2 receptor) | EC50 (hCB1 receptor)
O=C(NC1(C(F)(F)F)CCC1)c1nn(-c2cnccn2)c2c1CC1CCC2O1 (stereo not shown) [Compound 10, 1-(pyrazin-2-yl)-N-(1-(trifluoromethyl)cyclobutyl)-1,4,5,6,7,8-hexahydro-5,8-epoxycyclohepta[c]pyrazole-3-carboxamide] | 0.04 nM | 100% | 571 nM | 90.3% |  | 
O=C(NC12CC(C1)C2)c1nn(-c2cnccn2)c2c1CC1CCC2O1 (stereo not shown) [Compound 12, N-(bicyclo[1.1.1]pentan-1-yl)-1-(pyrazin-2-yl)-1,4,5,6,7,8-hexahydro-5,8-epoxycyclohepta[c]pyrazole-3-carboxamide] | 0.24 nM | 99.5% | 1510 nM | 90.8% |  | 
O=C(NC12CC3CC(CC1C3)C2)c1nn(-c2cnccn2)c2c1CC1CCC2O1 [Compound 13, N-((2R,3as,5S,6as)-hexahydro-2,5-methanopentalen-3a(1H)-yl)-1-(pyrazin-2-yl)-1,4,5,6,7,8-hexahydro-5,8-epoxycyclohepta[c]pyrazole-3-carboxamide] | 0.02 nM | 100% | 16.6 nM | 111% |  | 
O=C(NC12CCC(CC1)CC2)c1nn(-c2cnccn2)c2c1CC1CCC2O1 (stereo not shown) [Compound 14, N-(bicyclo[2.2.2]octan-1-yl)-1-(pyrazin-2-yl)-1,4,5,6,7,8-hexahydro-5,8-epoxycyclohepta[c]pyrazole-3-carboxamide] | 0.06 nM | 100% | 61.8 nM | 103% |  | 
CC(C)(C)[C@@H](CO)NC(=O)c1nn(-c2c[n+]([O-])ccn2)c2c1C[C@H]1CC[C@@H]2O1 [Compound 16, 3-((5R,8S)-3-(((S)-1-hydroxy-3,3-dimethylbutan-2-yl)carbamoyl)-5,6,7,8-tetrahydro-5,8-epoxycyclohepta[c]pyrazol-1(4H)-yl)pyrazine 1-oxide] | 0.09 nM | 101% | 352 nM | 91.3% |  | 
O=C(NC1(C(F)(F)F)CCC1)c1nn(-c2c[n+]([O-])ccn2)c2c1CC1CCC2O1 (stereo not shown) [Compound 18, 3-(3-((1-(trifluoromethyl)cyclobutyl)carbamoyl)-5,6,7,8-tetrahydro-5,8-epoxycyclohepta[c]pyrazol-1(4H)-yl)pyrazine 1-oxide] | 0.04 nM | 99.9% | 198 nM | 90.7% |  | 
O=C(NC12CC(C1)C2)c1nn(-c2c[n+]([O-])ccn2)c2c1CC1CCC2O1 (stereo not shown) [Compound 20, 3-(3-(bicyclo[1.1.1]pentan-1-ylcarbamoyl)-5,6,7,8-tetrahydro-5,8-epoxycyclohepta[c]pyrazol-1(4H)-yl)pyrazine 1-oxide] | 0.05 nM | 100% | 1780 nM | 91% |  | 
O=C(NC12CC3CC(CC1C3)C2)c1nn(-c2c[n+]([O-])ccn2)c2c1CC1CCC2O1 [Compound 21, 3-(3-(((2R,3as,5S,6as)-hexahydro-2,5-methanopentalen-3a(1H)-yl)carbamoyl)-5,6,7,8-tetrahydro-5,8-epoxycyclohepta[c]pyrazol-1(4H)-yl)pyrazine 1-oxide] | 0.02 nM | 99.9% | 28.2 nM | 94.9% |  | 
O=C(NC12CCC(CC1)CC2)c1nn(-c2c[n+]([O-])ccn2)c2c1CC1CCC2O1 (stereo not shown) [Compound 22, 3-(3-(bicyclo[2.2.2]octan-1-ylcarbamoyl)-5,6,7,8-tetrahydro-5,8-epoxycyclohepta[c]pyrazol-1(4H)-yl)pyrazine 1-oxide] | 0.02 nM | 99.7% | 48.5 nM | 96.5% |  | 
CC(C)(C)c1cnc(-c2nn(-c3c[n+]([O-])ccn3)c3c2CC2CCC3O2)s1 (stereo not shown) [Compound 24, 3-(3-(5-(tert-butyl)thiazol-2-yl)-5,6,7,8-tetrahydro-5,8-epoxycyclohepta[c]pyrazol-1(4H)-yl)pyrazine 1-oxide] | 0.06 nM | 97.8% | 65.7 nM | 95.5% |  | 
CCC(C)(C)c1noc(-c2nn(-c3c[n+]([O-])ccn3)c3c2CC2CCC3O2)n1 (stereo not shown) [Compound 25, 3-(3-(3-(tert-pentyl)-1,2,4-oxadiazol-5-yl)-5,6,7,8-tetrahydro-5,8-epoxycyclohepta[c]pyrazol-1(4H)-y)pyrazine 1-oxide] | 0.02 nM | 99.5% | 114 nM | 98.9% |  | 
CC(C)(C)c1noc(-c2nn(-c3c[n+]([O-])ccn3)c3c2CC2CCC3O2)n1 (stereo not shown) [Compound 26, 3-(3-(3-(tert-butyl)-1,2,4-oxadiazol-5-yl)-5,6,7,8-tetrahydro-5,8-epoxycyclohepta[c]pyrazol-1(4H)-yl)pyrazine 1-oxide] | 0.13 nM | 100% | 4920 nM | 73.3% |  | 
CC(C)(C)c1nnc(-c2nn(-c3c[n+]([O-])ccn3)c3c2CC2CCC3O2)s1 (stereo not shown) [Compound 27, 3-(3-(5-(tert-butyl)-1,3,4-thiadiazol-2-yl)-5,6,7,8-tetrahydro-5,8-epoxycyclohepta[c]pyrazol-1(4H)-yl)pyrazine 1-oxide] | 0.06 nM | 99% | 130 nM | 94.9% |  | 
CC(C)(C)c1nnc(-c2nn(-c3c[n+]([O-])ccn3)c3c2CC2CCC3O2)o1 (stereo not shown) [Compound 29, 3-(3-(5-(tert-butyl)-1,3,4-oxadiazol-2-yl)-5,6,7,8-tetrahydro-5,8-epoxycyclohepta[c]pyrazol-1(4H)-yl)pyrazine 1-oxide] | 0.2 nM | 101% | 2370 nM | 79.3% |  | 
CC(C)(C)NC(=O)c1nn(-c2c[n+]([O-])ccn2)c2c1CC1CCC2O1 (stereo not shown) [Compound 31, 3-(3-(tert-butylcarbamoyl)-5,6,7,8-tetrahydro-5,8-epoxycyclohepta[c]pyrazol-1(4H)-yl)pyrazine 1-oxide] | 0.33 nM | 99.7% | 1430 nM | 83.2% |  | 
CC(C)(C)c1noc(-c2nn(-c3cnccn3)c3c2CC2CCC3O2)n1 (stereo not shown) [Compound 37, 3-(3-(tert-butyl)-1,2,4-oxadiazol-5-yl)-1-(pyrazin-2-yl)-1,4,5,6,7,8-hexahydro-5,8-epoxycyclohepta[c]pyrazole] | 0.22 nM | 99.2% | 177 nM | 34.8% |  | 
CC(C)(C)c1nnc(-c2nn(-c3cnccn3)c3c2CC2CCC3O2)s1 (stereo not shown) [Compound 38, 3-(5-(tert-butyl)-1,3,4-thiadiazol-2-yl)-1-(pyrazin-2-yl)-1,4,5,6,7,8-hexahydro-5,8-epoxycyclohepta[c]pyrazole] |  | 100% |  | 114% | 0.04 nM | 283 nM
O=C(NC12CC3CC(CC1C3)C2)c1nn(-c2ccc(F)cc2F)c2c1CC1CCC2O1 [Compound 41, 1-(2,4-difluorophenyl)-N-((2R,3as,5S,6as)-hexahydro-2,5-methanopentalen-3a(1H)-yl)-1,4,5,6,7,8-hexahydro-5,8-epoxycyclohepta[c]pyrazole-3-carboxamide] | 0.08 nM | 99.1% | 0.7 nM | 98% |  | 
O=C(NC[C@]12C[C@@H]3C[C@@H](C[C@@H](C3)C1)C2)c1nn(-c2ccc(F)cc2F)c2c1CC1CCC2O1 [Compound 42, N-(((3r,5r,7r)-adamantan-1-yl)methyl)-1-(2,4-difluorophenyl)-1,4,5,6,7,8-hexahydro-5,8-epoxycyclohepta[c]pyrazole-3-carboxamide] | 10.3 nM | 77.1% | 260 nM | 98.2% |  | 
